Values of other authors in patent publication US20180256462A1, “ALCOHOL-BASED SKIN SANITIZER HAVING MICROBICIDAL PROPERTIES” (DEB IP LIMITED, priority 2015, published 2018).
Read-outs that look alike come from different tables or passages of the source.

What was measured:
Staphylococcus aureus = conditions: low concentrations (0.5 to 2 mM), disk diffusion
Lactobacillus fermentum = conditions: live cells of Lactobacillus fermentum, flow cytometry
Microsporum gypseum [1] = conditions: 10% in Vaseline petroleum jelly, topical daily for 3 weeks; for skin lesion scoring: first week of application; for histopathologic examination of skin tissues (hyperkeratosis, inflammatory cell infiltration): versus positive control
Microsporum gypseum [2] = tested on: Microsporum gypseum

MIC (Microsporum gypseum [2]) | MIC (Microsporum gypseum [2]; positive control) [µg/mL] | SMILES | susceptibility of Staphylococcus aureus to ciprofloxacin, clindamycin, erythromycin, gentamicin, tetracycline, and vancomycin (Staphylococcus aureus) | intracellular accumulation of ethidium bromide (Lactobacillus fermentum) | hair culture test (Microsporum gypseum [1]) | skin lesion scoring (Microsporum gypseum [1]) | histopathologic examination of skin tissues (hyperkeratosis, inflammatory cell infiltration) (Microsporum gypseum [1]) | sensitization of Escherichia coli to polymyxin B (Escherichia coli)
0.5-2% |  | C=CC(C)(O)CCC=C(C)CCC=C(C)C (mixture of isomers) [nerolidol, 3,7,11-trimethyl-1,6,10-dodecatrien-3-ol] | enhanced the susceptibility of Staphylococcus aureus | promoted the intracellular accumulation of the membrane-impermeant nucleic acid stain ethidium bromide | improved the skin lesions infected by M. gypseum | clinically effective at improving the lesion during the first week of application | lower degree of hyperkeratosis and inflammatory cell infiltration than the positive control | sensitized Escherichia coli to polymyxin B
 |  | CC(C)=CCC/C(C)=C/CC1CCCC1=O (stereo not drawn) [apritone] | enhanced the susceptibility of Staphylococcus aureus | promoted the intracellular accumulation of the membrane-impermeant nucleic acid stain ethidium bromide |  |  |  | 
 |  | CC(C)=CCC[C@](C)(O)C1CC=C(C)CC1 (stereo partly drawn) [bisabolol] | enhanced the susceptibility of Staphylococcus aureus | promoted the intracellular accumulation of the membrane-impermeant nucleic acid stain ethidium bromide |  |  |  | 
 | 4 to 16 | Clc1ccc(COC(Cn2ccnc2)c2ccc(Cl)cc2Cl)cc1 (stereo not drawn) [econazole] |  |  |  |  |  | 
0.01-0.03% |  | C=CCc1ccc(O)c(OC)c1 [eugenol] |  |  | did not | clinically effective at improving the lesion during the first week of application | lower degree of hyperkeratosis and inflammatory cell infiltration than the positive control | 
 |  | CC(C)=CCCC(C)=CCCC(C)=CCO [farnesol] |  | promoted the intracellular accumulation of the membrane-impermeant nucleic acid stain ethidium bromide |  |  |  | sensitized Escherichia coli to polymyxin B
